The target in this assay is T1, Dimer of Gag-Pol polyprotein [489-587] (Human immunodeficiency virus 1, UniProt P12497).
T1 construct: 489-587
Description: Protease Inhibition Assay. Particulars: pH 5.5; 37 °C. As to the method: Inhibition of HIV protease was measured by assay of the cleavage of a fluorescent peptide substrate. The fluorescent product (2-aminobenzoyl-Ala-Thr-His-Gln-Val-Tyr) was separated from the fluorescent substrate by anion-exchange HPLC on a Mono-Q anion-exchange column (Pharmacia), and fluorescence was monitored at an excitation wavelength of 330 nm and an emission wavelength of 430 nm. Ki values for inhibitor binding were estimated at fixed concentrations of substrate and inhibitor from fractional activity measurements by use of the modified Michaelis-Menten equation.
Consider `O=C1N(Cc2ccc(CO)cc2)[C@H](CC2CCCCC2)[C@H](O)[C@@H](O)[C@@H](CC2CCCCC2)N1Cc1ccc(CO)cc1` [(4R,5S,6S,7R)-4,7-bis(cyclohexylmethyl)-5,6-dihydroxy-1,3-bis({[4-(hydroxymethyl)phenyl]methyl})-1,3-diazepan-2-one], for which the Ki turned out to be 32 nM.
Consider `O=C1N(Cc2ccc(CO)cc2)[C@H](Cc2ccc(F)c(F)c2)[C@H](O)[C@@H](O)[C@@H](Cc2ccc(F)c(F)c2)N1Cc1ccc(CO)cc1` [(4R,5S,6S,7R)-4,7-bis[(3,4-difluorophenyl)methyl]-5,6-dihydroxy-1,3-bis({[4-(hydroxymethyl)phenyl]methyl})-1,3-diazepan-2-one], for which the Ki is 0.47 nM.
Next, `CC(C)C[C@@H]1[C@H](O)[C@@H](O)[C@@H](CC(C)C)N(Cc2ccc(CO)cc2)C(=O)N1Cc1ccc(CO)cc1` [(4R,5S,6S,7R)-5,6-dihydroxy-1,3-bis({[4-(hydroxymethyl)phenyl]methyl})-4,7-bis(2-methylpropyl)-1,3-diazepan-2-one]: 38 nM; `O=C1N(Cc2ccc(CO)cc2)[C@H](Cc2ccncc2)[C@H](O)[C@@H](O)[C@@H](Cc2ccncc2)N1Cc1ccc(CO)cc1` [(4R,5S,6S,7R)-5,6-dihydroxy-1,3-bis({[4-(hydroxymethyl)phenyl]methyl})-4,7-bis(pyridin-4-ylmethyl)-1,3-diazepan-2-one]: 4.8 nM.
`COc1cccc(C[C@@H]2[C@H](O)[C@@H](O)[C@@H](Cc3cccc(OC)c3)N(Cc3ccc(CO)cc3)C(=O)N2Cc2ccc(CO)cc2)c1` [(4R,5S,6S,7R)-5,6-dihydroxy-1,3-bis({[4-(hydroxymethyl)phenyl]methyl})-4,7-bis[(3-methoxyphenyl)methyl]-1,3-diazepan-2-one]: the Ki is 0.11 nM.
In the case of `O=C1N(CC2CC2)[C@H](Cc2cccs2)[C@H](O)[C@@H](O)[C@@H](Cc2cccs2)N1CC1CC1` [(4R,5S,6S,7R)-Hexahydro-5,6-dihydroxy-1,3-bis-(cyclopropylmethyl)-4,7-bis(2-thienylmethyl)-2H-1,3-diazapin-2-one] it was 9.1 nM.
Next, `CSCC[C@@H]1[C@H](O)[C@@H](O)[C@@H](CCSC)N(Cc2ccc(CO)cc2)C(=O)N1Cc1ccc(CO)cc1` [(4R,5S,6S,7R)-Hexahydro-5,6-dihydroxy-1,3-bis-[[4-(hydroxymethyl)phenyl]methyl]-4,7-bis[2-(methylthio)ethyl]-2H-1,3-diazapin-2-one]: 3900 nM; `O=C1N(Cc2ccc(CO)cc2)[C@H](Cc2ccc(F)cc2)[C@H](O)[C@@H](O)[C@@H](Cc2ccc(F)cc2)N1Cc1ccc(CO)cc1` [(4R,5S,6S,7R)-Hexahydro-5,6-dihydroxy-1,3-bis-[[4-(hydroxymethyl)phenyl]methyl]-4,7-bis[(4-fluorophenyl)methyl]-2H-1,3-diazapin-2-one]: 0.44 nM; `COc1ccc(C[C@@H]2[C@H](O)[C@@H](O)[C@@H](Cc3ccc(OC)cc3)N(Cc3ccc(CO)cc3)C(=O)N2Cc2ccc(CO)cc2)cc1` [(4R,5S,6S,7R)-Hexahydro-5,6-dihydroxy-1,3-bis-[[4-(hydroxymethyl)phenyl]methyl]-4,7-bis[(4-methoxyphenyl)methyl]-2H-1,3-diazapin-2-one]: 0.24 nM.
For the compound `O=C(Nc1nc2ccccc2[nH]1)c1cccc(CN2C(=O)N(Cc3cccc(C(=O)Nc4nc5ccccc5[nH]4)c3)[C@H](Cc3ccccc3)[C@H](O)[C@@H](O)[C@H]2Cc2ccccc2)c1` [N-(1H-1,3-benzodiazol-2-yl)-3-{[(4R,5S,6S,7R)-3-{[3-(1H-1,3-benzodiazol-2-ylcarbamoyl)phenyl]methyl}-4,7-dibenzyl-5,6-dihydroxy-2-oxo-1,3-diazepan-1-yl]methyl}benzamide], the Ki was 0.024 nM.

These data come from BindingDB's records for doi:10.1016/s0960-894x(98)00175-9 (Dupont Pharmaceuticals, 1998).
